In series [1] the test system is HCT116 cells. In words: HCT116 cell anti-proliferation assay. It counts as cell-based. To be noted: 6 days, Cell Titer-Glo. The method, then: HCT116 (ATCC, CCL-247) cells were cultured in McCoy's 5a complete medium (Gibco, 12330-031) containing 10% fetal bovine serum (Gibco, 10099-141C), 100 U penicillin and 100 μg/mL streptomycin (Gibco, 15140-122). The Promega kit Cell Titer-Glo (Promega: G7572) was used in this method for test.
HCT116 cells were cultured in T75 cell flasks (Corning, 430641) and the cells were placed in a 37° C., 5% CO2 incubator. Cells were passaged when reaching a cell density of 70%-80%, approximately twice per week. To perform the experiment, the test compounds were dissolved in DMSO to prepare a 10 mM stock solution, and the test compounds were added to the 384-well cell test plate (Corning, 3765) at the predetermined concentration (19.5 nM-[…]) using ECHO. […] cells were digested and 150 cells (60 μL medium) were seeded per well in the test plate. The 384-well plate was then centrifuged at 500 rpm for 1 minute, and then placed in a 37° C., 5% CO2 incubator for 6 days of cultivation. Six days later, the cell culture plate was equilibrated for 10 minutes at room temperature, 25 μL of Cell Titer-Glo was added to each well, and the mixture was shaken and mixed well and let stand for 5 minutes. The luminescence values for samples in various wells were read using a microplate reader in Luminescence mode.
The percentage of inhibition of cell proliferation by the test compound at each concentration was calculated by comparing with the values of the control group (0.2% DMSO). The IC50 values of the compounds were obtained by concentration-inhibition rate nonlinear regression analysis of the test compounds using GraphPad Prism 9.
On the technique in general: In ATP-based viability assays light output follows the ATP content of the culture.

The test system of series [2] is OVCAR-3 cells. As to the kind of experiment: OVCAR-3 cell proliferation (Cell Titer-Glo, 10 days). It counts as cell-based, human. The method in brief: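 400 cells per well were seeded onto pre-dispensed compound (final 0.12 nM to 10 μM) in RPMI-1640 with 20% FBS and insulin, then co-cultured for 10 days. Viability was read as Cell Titer-Glo luminescence, inhibition was taken against 0.1% DMSO control, and IC50 came from nonlinear concentration-inhibition regression.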

A short description of series [3]: PK study in ICR mice. To be noted: plasma, route and dose not given. It is filed as in vivo, mouse. The method in brief: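 Fasted ICR mice (3/group) dosed intravenously or by oral gavage; plasma sampled up to 24 h. Plasma levels measured by LC-MS/MS after protein precipitation. T½, AUC0-t, CL, Vss and F derived by noncompartmental analysis.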
The mark [4] stands for this setting: both sexes, mouse, read-out: AUC.
Setting [5] is: both sexes, mouse, read-out: Cmax.

Read-outs that look alike come from different tables or passages of the source.

On to `N#Cc1ccc(NC(=O)c2ccc(NS(=O)(=O)CCO)cc2N2CCC3(CC2)CC3)c2cc3n(c12)CCOC3` [Example 310, N-(6-cyano-3,4-dihydro-1H-[1,4]oxazino[4,3-a]indol-9-yl)-4-((2-hydroxyethyl)sulfonamido)-2-(6-azaspiro[2.5]oct-6-yl)benzamide], for which the IC50 (commonly the point on the concentration scale where inhibition reaches its midpoint) in series [1] (Homo sapiens, HCT-116, 144 h) was 9 µM; in series [2] (Homo sapiens, OVCAR-3, 240 h), at most 0.05 µM. The AUC – broadly, concentration integrated over time – in series [3] (setting [4]) was found to be 12.6 µg·h/mL. For the same compound, in series [3] (setting [5]), the Cmax – broadly, the peak of the concentration-time curve – is 3.03 µg/mL.
As to `O=C(Nc1cccc2c1cc1n2CCOC1)c1ccc(NS(=O)(=O)CCO)cc1N1CCC(=C(F)F)CC1` [Example 319, 2-(4-difluoromethylene)piperidin-1-yl-N-(3,4-dihydro-1H-[1,4]oxazino[4,3-a]indol-9-yl)-4-((2-hydroxyethyl)sulfonamide) benzamide], the IC50 was over 10 µM in series [1] and at most 0.05 µM in series [2]. This compound registered an exposure (AUC) in series [3] of 16.534 µg·h/mL. For the same compound, in series [3], the Cmax is 3.717 µg/mL.
For `O=C(Nc1ccc(F)c2c1cc1n2CCOC1)c1ccc(NS(=O)(=O)CCO)cc1N1CCC(=C(F)F)CC1` [Example 321, 2-(4-(difluoromethylene)piperidin-1-yl)-N-(6-fluoro-3,4-dihydro-1H-[1,4]oxazino[4,3-a]indol-9-yl)-4-((2-hydroxyethyl)sulfonamido)benzamide], the IC50 in series [1] (Homo sapiens, HCT-116, 144 h) was over 10 µM; in series [2] (Homo sapiens, OVCAR-3, 240 h), 0.05 to 0.5 µM. For the same compound, in series [3] (setting [4]), the exposure (AUC) was 16 µg·h/mL. In addition, the Cmax in series [3] (setting [5]) was 4.14 µg/mL.
`CC1(C)Cn2c(cc3c(NC(=O)c4ccc(NS(=O)(=O)CCO)cc4N4CCC(=C(F)F)CC4)cccc32)CO1` [Example 370, 2-(4-(difluoromethylene)piperidin-1-yl)-N-(3,3-dimethyl-3,4-dihydro-1H-[1,4]oxazino[4,3-a]indol-9-yl)-4-((2-hydroxyethyl)sulfonamido)benzamide]: the IC50 in series [1] (Homo sapiens, HCT-116, 144 h) was over 10 µM; in series [2] (Homo sapiens, OVCAR-3, 240 h), at most 0.05 µM. In addition, the area under the curve (AUC) in series [3] (setting [4]) came out at 52.4 µg·h/mL. Moreover, the Cmax in series [3] (setting [5]) was 3.58 µg/mL.
As for `CC1(C)Cn2c(cc3c(NC(=O)c4ccc(NS(=O)(=O)CCO)cc4N4CCC5(CC4)CC5)cccc32)CO1` [Example 371, N-(3,3-dimethyl-3,4-dihydro-1H-[1,4]oxazino[4,3-a]indol-9-yl)-4-(2-hydroxyethylsulfonamido)-2-(6-azaspiro[2.5]octan-6-yl)benzamide], the concentration for half-maximal inhibition (IC50) in series [1] (Homo sapiens, HCT-116, 144 h) is over 10 µM; in series [2] (Homo sapiens, OVCAR-3, 240 h) it was at most 0.05 µM. Also, the AUC in series [3] (setting [4]) was 51.2 µg·h/mL. In addition, the Cmax in series [3] (setting [5]) stood at 3.75 µg/mL.
As to `O=C(Nc1cccc2c1cc1n2CCC(F)(F)C1)c1ccc(NS(=O)(=O)CCO)cc1N1CCC(=C(F)F)CC1` [Example 374, N-(8,8-difluoro-6,7,8,9-tetrahydropyridino[1,2-a]indol-1-yl)-2-(4-(difluoromethylene)piperidin-1-yl)-4-((2-hydroxyethyl)sulfonamido)benzamide], the IC50 in series [1] (Homo sapiens, HCT-116, 144 h) was 8.7 µM; in series [2] (Homo sapiens, OVCAR-3, 240 h) it was at most 0.05 µM. Besides, the AUC in series [3] (setting [4]) worked out at 26.5 µg·h/mL. Also, in series [3] (setting [5]), the highest concentration (Cmax) was 3.7 µg/mL.
`N#Cc1ccc(NC(=O)c2ccc(NS(=O)(=O)CCO)cc2N2CCC(=C(F)F)CC2)c2cc3n(c12)CCC(F)(F)C3` [Example 378]: in series [1], the IC50 is over 10 µM. This compound also returned an IC50 in series [2] of at most 0.05 µM. In series [3], this compound registered an AUC of 48.15 µg·h/mL and a Cmax of 5.253 µg/mL.
In the same order, the values of `N#Cc1ccc(NC(=O)c2ccc(NS(=O)(=O)CCO)cc2N2CCC3(CC2)CC3)c2cc3n(c12)CCC(F)(F)C3` [Example 379] are 9.8 µM, at most 0.05 µM, 36.456 µg·h/mL and 4.043 µg/mL.
For `COc1ccc(NC(=O)c2ccc(NS(=O)(=O)CCO)cc2N2CCC3(CC2)CC3)c2cc3n(c12)CC(C)(C)OC3` [Example 455, 4-((2-hydroxyethyl)sulfonamido)-N-(6-methoxy-3,3-dimethyl-3,4-dihydro-1H-[1,4]oxazinyl[4,3-a]indol-9-yl)-2-(6-azaspiro[2.5]oct-6-yl)benzamide], the IC50 is over 10 µM in series [1] (Homo sapiens, HCT-116, 144 h) and at most 0.05 µM in series [2] (Homo sapiens, OVCAR-3, 240 h). Moreover, the AUC in series [3] (setting [4]) was determined as 71 µg·h/mL. Further, in series [3] (setting [5]), the Cmax stood at 5.59 µg/mL.
For the compound `COc1ccc(NC(=O)c2ccc(NS(=O)(=O)CCO)cc2N2CCC(=C(F)F)CC2)c2cc3n(c12)CC(C)(C)OC3` [Example 465, 2-(4-(difluoromethylene)piperidin-1-yl)-4-((2-hydroxyethyl)sulfonamido)-N-(6-methoxy-3,3-dimethyl-3,4-dihydro-1H-[1,4]oxazinyl[4,3-a]indol-9-yl)benzamide], in series [1], the IC50 was over 10 µM. The same compound had an IC50 in series [2] of at most 0.05 µM. In series [3], this compound returned an AUC of 72.111 µg·h/mL and a Cmax of 5.78 µg/mL.

The values above are taken from US20260070887A1 (Shenzhen Zhongge Biological Technology Co., Ltd., priority 2022, published 2026).
